Source: PubChem BioAssay AID248 (DTP/NCI, 2004)
Inconclusive results and toxic doses are left out. Cut-off read from the data, not from the text of the source: active = T/C of 150% or more; inactive = T/C below 125%.

System: L1210 leukemia ip in BDF1 mice, survival T/C
Assay: NCI In Vivo Anticancer Drug Screen. Data for tumor model L1210 Leukemia (intraperitoneal) in B6D2F1 (BDF1) mice
Details: endpoint: mean survival time, higher = longer survival
In short: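 Tumor cells were implanted, animals were treated, and survival was followed. The result divides the treated measurement by the vehicle-control measurement.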

[1] = dose: 100.0 mg/kg/injection, schedule: Q01DX001 (ip), vehicle: saline with Tween-80
[2] = dose: 200.0 mg/kg/injection, schedule: Q01DX001 (ip), vehicle: saline with Tween-80
[3] = dose: 400.0 mg/kg/injection, schedule: Q01DX001 (ip), vehicle: saline with Tween-80
[4] = dose: 25.0 mg/kg/injection, schedule: Q01DX009 (ip), vehicle: saline with Tween-80
[5] = dose: 50.0 mg/kg/injection, schedule: Q01DX009 (ip), vehicle: saline with Tween-80
[6] = dose: 100.0 mg/kg/injection, schedule: Q01DX009 (ip), vehicle: saline with Tween-80
[7] = dose: 50.0 mg/kg/injection, schedule: Q04DX003 (ip), vehicle: saline
[8] = dose: 75.0 mg/kg/injection, schedule: Q01DX001 (ip), vehicle: saline
[9] = dose: 100.0 mg/kg/injection, schedule: Q04DX003 (ip), vehicle: saline with Tween-80
[10] = dose: 200.0 mg/kg/injection, schedule: Q04DX003 (ip), vehicle: saline with Tween-80
[11] = dose: 25.0 mg/kg/injection, schedule: Q04DX003 (ip), vehicle: saline with Tween-80
[12] = dose: 50.0 mg/kg/injection, schedule: Q04DX003 (ip), vehicle: saline with Tween-80
[13] = dose: 400.0 mg/kg/injection, schedule: Q04DX003 (ip), vehicle: saline with Tween-80
[14] = dose: 100.0 mg/kg/injection, schedule: Q04DX002 (ip), vehicle: saline with Tween-80
[15] = dose: 200.0 mg/kg/injection, schedule: Q04DX002 (ip), vehicle: saline with Tween-80
[16] = dose: 400.0 mg/kg/injection, schedule: Q04DX002 (ip), vehicle: saline with Tween-80
[17] = dose: 200.0 mg/kg/injection, schedule: Q01DX009 (ip), vehicle: saline with Tween-80
[18] = dose: 400.0 mg/kg/injection, schedule: Q01DX009 (ip), vehicle: saline with Tween-80
[19] = dose: 100.0 mg/kg/injection, schedule: Q01DX001 (ip), vehicle: saline
[20] = dose: 200.0 mg/kg/injection, schedule: Q01DX001 (ip), vehicle: saline
[21] = dose: 400.0 mg/kg/injection, schedule: Q01DX001 (ip), vehicle: saline
[22] = dose: 12.5 mg/kg/injection, schedule: Q01DX009 (ip), vehicle: Klucel (hydroxypropylcellulose) (HPC)
[23] = dose: 25.0 mg/kg/injection, schedule: Q01DX009 (ip), vehicle: Klucel (hydroxypropylcellulose) (HPC)
[24] = dose: 50.0 mg/kg/injection, schedule: Q01DX009 (ip), vehicle: Klucel (hydroxypropylcellulose) (HPC)
[25] = dose: 100.0 mg/kg/injection, schedule: Q04DX003 (ip), vehicle: Klucel (hydroxypropylcellulose) (HPC)
[26] = dose: 200.0 mg/kg/injection, schedule: Q04DX003 (ip), vehicle: Klucel (hydroxypropylcellulose) (HPC)

Measured: T/C

O=C(O)c1cccn1-c1ccccc1
inactive: [1] 102 % of control | dose: 100.0 mg/kg/injection, schedule: Q04DX003 (ip), vehicle: other 96 % of control | [2] 103 % of control | dose: 200.0 mg/kg/injection, schedule: Q04DX003 (ip), vehicle: other 101 % of control | [3] 96 % of control | dose: 400.0 mg/kg/injection, schedule: Q04DX003 (ip), vehicle: other 89 % of control

CCCCOC(=O)c1ccc(OC(=O)Nc2ccc(OC)cc2Cl)cc1
inactive: dose: 100.0 mg/kg/injection, schedule: Q04DX002 (ip), vehicle: saline 110 % of control | dose: 200.0 mg/kg/injection, schedule: Q04DX002 (ip), vehicle: saline 104 % of control | dose: 400.0 mg/kg/injection, schedule: Q04DX002 (ip), vehicle: saline 100 % of control

O=C(CNC(=O)c1ccc(Cl)cc1Cl)N/N=C/c1ccc(Cl)c(Cl)c1
inactive: [4] 95 % of control | [5] 91 % of control | [6] 88 % of control

Clc1ccc2c(c1)ncn1nnnc21
inactive: [7] 95 % of control | dose: 100.0 mg/kg/injection, schedule: Q04DX003 (ip), vehicle: saline 104 % of control | dose: 200.0 mg/kg/injection, schedule: Q04DX003 (ip), vehicle: saline 93 % of control

CCC(CC)NCCOC(=O)c1ccc(N)cc1
inactive: [8] 100 % of control | dose: 150.0 mg/kg/injection, schedule: Q01DX001 (ip), vehicle: saline 98 % of control

OC1CC2C3CCC(C3)C2C1O (centres undefined)
inactive: [9] 106 % of control | [10] 90 % of control

Cc1cc(N(CCCOS(C)(=O)=O)CCCOS(C)(=O)=O)ccc1C=Nc1ccc2ccccc2c1
inactive: [11] 98 % of control | [12] 98 % of control | [9] 98 % of control | [13] 93 % of control

CC(C)(CO)NC(=O)COc1ccc(Cl)cc1Cl
inactive: [14] 102 % of control | [15] 94 % of control | [16] 94 % of control

COc1cc2c(cc1O)C(Cc1ccc(OC)c(OC)c1)N(C)CC2 (centres undefined)
inactive: dose: 75.0 mg/kg/injection, schedule: Q01DX001 (ip), vehicle: other 93 % of control | dose: 150.0 mg/kg/injection, schedule: Q01DX001 (ip), vehicle: other 101 % of control

CC(C)C1=CC23CCC4C(C)(C(=O)O)CCCC4(C)C2CC13 (centres undefined)
inactive: [6] 88 % of control | [17] 90 % of control | [18] 91 % of control

COc1cccc(/C=C2\SC(=S)NC2=O)c1
inactive: [19] 101 % of control | [20] 95 % of control | [21] 95 % of control

CN(C)Cc1cc(O)c(CN(C)C)cc1O
inactive: [4] 110 % of control | [11] 88 % of control | [5] 103 % of control | [12] 93 % of control | [9] 96 % of control

Cc1cc(NC(=O)Nc2ccc(Cl)cc2C)no1
inactive: [22] 102 % of control | [23] 97 % of control | [24] 91 % of control

CCN(CC)CCOC(=O)c1[nH]cnc1N
inactive: [19] 96 % of control | [20] 104 % of control | [21] 96 % of control

COc1cc2c(cc1OC)NCc1cccn1C2
inactive: dose: 25.0 mg/kg/injection, schedule: Q04DX002 (ip), vehicle: saline with Tween-80 101 % of control | dose: 50.0 mg/kg/injection, schedule: Q04DX002 (ip), vehicle: saline with Tween-80 97 % of control | [14] 105 % of control

O=[N+]([O-])c1ccc2c(c1)[As](=O)(O)c1cc([N+](=O)[O-])ccc1-2
inactive: [8] 120 % of control

NC(N)=NC(N)=Nc1cc(C(F)(F)F)ccc1Cl
inactive: [22] 95 % of control | [23] 95 % of control | [24] 113 % of control

O=C(CS(=O)(=O)O)Nc1ccccc1
inactive: [1] 94 % of control | [2] 97 % of control | [3] 100 % of control

Cc1cccc(/C=N\NC(=O)CCCC(=O)N/N=C/c2cccc(C)n2)n1
inactive: dose: 50.0 mg/kg/injection, schedule: Q01DX001 (ip), vehicle: carboxymethylcellulose (CMC) 88 % of control | dose: 100.0 mg/kg/injection, schedule: Q01DX001 (ip), vehicle: carboxymethylcellulose (CMC) 90 % of control

CCC(c1ccc(OC)cc1)C(CC)c1ccc(O)c(CN2CCN(C)CC2)c1 (centres undefined)
inactive: [9] 94 % of control | [10] 94 % of control | [13] 94 % of control

CCOC(=O)CNC(=O)NCc1ccccc1
inactive: [6] 106 % of control | [17] 102 % of control | [18] 105 % of control

COC1=C(c2ccccc2)P(=O)(Cc2ccccc2)C2CCCC12 (centres undefined)
inactive: [25] 109 % of control | [26] 96 % of control | dose: 400.0 mg/kg/injection, schedule: Q04DX003 (ip), vehicle: Klucel (hydroxypropylcellulose) (HPC) 100 % of control

[Cl][Ge]([Cl])([c]1ccccc1)[c]1ccccc1
inactive: [24] 96 % of control | dose: 100.0 mg/kg/injection, schedule: Q01DX009 (ip), vehicle: Klucel (hydroxypropylcellulose) (HPC) 96 % of control | [25] 98 % of control | [26] 94 % of control

CCOC(=O)CNc1cccc(I)c1
inactive: dose: 100.0 mg/kg/injection, schedule: Q04DX002 (ip), vehicle: Klucel (hydroxypropylcellulose) (HPC) 110 % of control | dose: 200.0 mg/kg/injection, schedule: Q04DX002 (ip), vehicle: Klucel (hydroxypropylcellulose) (HPC) 100 % of control | dose: 400.0 mg/kg/injection, schedule: Q04DX002 (ip), vehicle: Klucel (hydroxypropylcellulose) (HPC) 104 % of control

CCCCSc1nc(SCCCC)nc(SCCCC)n1
inactive: [14] 96 % of control | [15] 111 % of control | [16] 89 % of control

CC(C#N)C(N)=O (centres undefined)
inactive: dose: 12.5 mg/kg/injection, schedule: Q04DX003 (ip), vehicle: saline 97 % of control | dose: 25.0 mg/kg/injection, schedule: Q04DX003 (ip), vehicle: saline 94 % of control | [7] 105 % of control

COc1nc(C)c(C)n[n+]1C
inactive: dose: 75.0 mg/kg/injection, schedule: Q01DX001 (ip), vehicle: saline with Tween-80 107 % of control | dose: 150.0 mg/kg/injection, schedule: Q01DX001 (ip), vehicle: saline with Tween-80 104 % of control | dose: 300.0 mg/kg/injection, schedule: Q01DX001 (ip), vehicle: saline with Tween-80 111 % of control

O=[N+]([O-])c1ccc(OCc2ccccc2S(=O)(=O)F)c(Cl)c1
inactive: dose: 100.0 mg/kg/injection, schedule: Q04DX003 (ip), vehicle: gum acacia 92 % of control | dose: 200.0 mg/kg/injection, schedule: Q04DX003 (ip), vehicle: gum acacia 93 % of control | dose: 400.0 mg/kg/injection, schedule: Q04DX003 (ip), vehicle: gum acacia 100 % of control

NC1=NC(=S)CS1
inactive: dose: 75.0 mg/kg/injection, schedule: Q04DX003 (ip), vehicle: saline 97 % of control | dose: 150.0 mg/kg/injection, schedule: Q04DX003 (ip), vehicle: saline 94 % of control | dose: 300.0 mg/kg/injection, schedule: Q04DX003 (ip), vehicle: saline 92 % of control

CCS(=O)(=O)N1CCC(C)CC1
inactive: [14] 96 % of control | [15] 101 % of control | [16] 103 % of control

O=C(C(=O)c1ccccc1)c1ccccc1
inactive: dose: 25.0 mg/kg/injection, schedule: Q01DX009 (ip), vehicle: water 102 % of control | dose: 50.0 mg/kg/injection, schedule: Q01DX009 (ip), vehicle: water 96 % of control | dose: 100.0 mg/kg/injection, schedule: Q01DX009 (ip), vehicle: water 102 % of control | [9] 101 % of control | dose: 200.0 mg/kg/injection, schedule: Q01DX009 (ip), vehicle: water 107 % of control | [10] 97 % of control | dose: 400.0 mg/kg/injection, schedule: Q01DX009 (ip), vehicle: water 98 % of control | [13] 101 % of control
